According to patent US11873298B2, “Compounds and uses thereof” (JANSSEN PHARMACEUTICA NV, priority 2017, dated 2024):
pIC50: −log10 of the molar value.

Each molecule was assayed against T1, SCD5 (Homo sapiens, UniProt Q86SK9) (assay: Growth inhibition of humanized yeast strain expressing SCD5 as sole desaturase). Details: humanized yeast strain expressing SCD5.
T1 construct: host or cells: S. cerevisiae ole1Δ strain (W303 pdr1Δ pdr3Δ background), plasmid pRS316 with TDH3 promoter and CYC1 terminator
T1 sequence (Q86SK9 1-330): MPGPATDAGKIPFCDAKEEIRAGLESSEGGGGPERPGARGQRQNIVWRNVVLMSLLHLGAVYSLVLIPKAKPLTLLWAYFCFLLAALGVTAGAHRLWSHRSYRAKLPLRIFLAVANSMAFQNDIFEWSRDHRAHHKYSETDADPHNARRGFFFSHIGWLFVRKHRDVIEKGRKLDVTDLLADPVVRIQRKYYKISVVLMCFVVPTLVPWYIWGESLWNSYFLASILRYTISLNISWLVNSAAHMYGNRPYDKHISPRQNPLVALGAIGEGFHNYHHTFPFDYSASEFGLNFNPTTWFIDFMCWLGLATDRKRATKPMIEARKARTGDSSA
Format: cell-based
Procedure: Strain oleΔ (yeast ole1 deletion mutant) was constructed by deleting OLE1 with NAT-MX6 in BY4741, amplifying the deletion cassette from the genomic DNA of the resulting strain with primers flanking the ORF by 1000 bp upstream and downstream, transforming the resulting deletion cassette into W303 pdr1Δ pdr3Δ, and plating transformants on YPD media containing G418 (200 μg/mL) and nourseothricin ([…]) with 0.01% TWEEN®-20 and 0.5 mM oleic and palmitoleic acids.
The coding sequence of yeast OLE1 was also cloned into this plasmid). These clones were then transformed into the ole1Δ strain and plated on CSM-Ura media (CSM lacking uracil) with 2% glucose (w/v) and independent colonies were isolated and amplified.
All compound profiling experiments were performed using the same basic protocol. Different genetic backgrounds (e.g., gene deletions) or conditions (e.g., addition of oleic and palmitoleic acid) were replaced as indicated below.
Yeast were cultured using standard techniques in complete synthetic media (CSM) and yeast nitrogen base supplemented with 2% (w/v) carbon source (glucose, raffinose, or galactose) to regulate the expression of the toxic disease protein. An initial starter culture was inoculated in 3 mL CSM-Glucose media and incubated overnight in a 30° C. shaker incubator (225 rpm). Saturated morning cultures were then diluted 1:20 in fresh CSM-Raffinose media and grown for 6 h to an OD600 (optical density) of ˜0.4-0.8 at 30° C. with shaking.
Compound administration was performed in two separate steps. First, 15 μL of CSM-Galactose (induces expression of toxic protein) was dispensed into clear 384 well assay plates using a MULTIDROP™ Combi reagent dispenser. […] The cultures described above were then diluted to a 2× concentration (0.03 and 0.08 for alpha-synuclein and ApoE, final ODsoo of 0.015 and 0.04) in CSM-Galactose. For wild-type and Ole1/SCD1/SCD5 plasmid-containing strains, the 2× cell density was 0.02. […] For 96-well assays (FIGS. 1A and 1B), compound dilutions in DMSO were generated in 96 well plates and 1 μL was manually pipetted into 96 well clear bottom assay plates.
For experiments using a plasmid-borne copy of Ole1, SCD1, or SCD5 (FIGS. 3B, 6, and 7), media lacking uracil (SX-Ura, where X is glucose, raffinose, or galactose), was used for all steps of the compound profiling protocol to ensure its maintenance throughout the assay.
After yeast delivery, assay plates were incubated under humidified conditions at 30° C. for 24 to 40 h. ApoE4 rescue experiments were stopped at 24 h, aSyn experiments at 40 h, Ole1 at 24 h, and SCD1/SCD5 at 40 h. The growth of yeast was monitored by reading the ODsoo of each well using a microplate reader (Perkin Elmer EnVision™).

SMILES | pIC50
Cc1nn(C)c2cc(-c3nsc(C4CCN(C(=O)OC(C)(C)C)CC4)n3)ccc12 [Compound 503] | 6.50
CC(C)n1ncc2ccc(-c3noc(C4CCN(C(=O)c5ccc(Cl)cn5)CC4)n3)cc21 [Compound 586] | 5.42
COc1ccc(S(=O)(=O)N2CCC(c3nc(-c4ccc5cnn(C(C)C)c5c4)no3)CC2)c(Br)c1 [Compound 539] | < 4.35
CC(C)n1ncc2ccc(-c3noc(C4CCN(C(=O)c5ncccc5Cl)CC4)n3)cc21 [Compound 587] | 5.31
CC(C)n1ncc2ccc(-c3noc([C@H]4CC[C@H](NC(=O)OC(C)(C)C)CC4)n3)cc21 [Compound 537] | < 4.35
CC(C)OC(=O)N1CCC(c2nc(-c3ccc4oc(=O)n(C(C)C)c4c3)no2)CC1 [Compound 507] | 5.61
CC(C)n1ncc2ccc(-c3noc(C4CCN(C(=O)c5ccsn5)CC4)n3)cc21 [Compound 588] | 5.73
CC(C)n1ncc2ccc(-c3noc(C4CCN(S(=O)(=O)c5ccccc5Cl)CC4)n3)cc21 [Compound 540] | < 4.35
N#Cc1cccc(N2C[C@@H](C(=O)N3CCC(c4nc(-c5ccc6cnn(C7COC7)c6c5)no4)CC3)CC2=O)c1 [Compound 599] | < 4.35
CC(C)CS(=O)(=O)N1CCC(c2nc(-c3ccc4cnn(C(C)C)c4c3)no2)CC1 [Compound 565] | < 4.35
CC(C)n1ncc2ccc(-c3nc(C4CCN(C(=O)c5ccc(Cl)cc5)CC4)no3)cc21 [Compound 505] | 6.17
CC(C)n1ncc2ccc(N3CC4(CCNCC4)C3)cc21 [Compound 538] | < 4.35
CC(C)n1ncc2ccc(-c3noc(C4CCN(C(=O)c5ccc(F)cc5)CC4)n3)cc21 [Compound 544] | 5.00
CC(C)n1ncc2ccc(-c3noc(N4CC5(CCN(C(=O)OC(C)(C)C)CC5)C4)n3)cc21 [Compound 555] | < 4.35
Cc1noc2cc(-c3noc(C4CCN(C(=O)CC5(C)CC5)CC4)n3)ccc12 [Compound 591] | < 4.35
CC(C)n1ncc2ccc(-c3noc(N4CCN(C(=O)CC5(C)CC5)CC4)n3)cc21 [Compound 495] | 5.72
CC(C)n1ncc2ccc(-c3noc(C4CCN(C(=O)c5ccsc5Cl)CC4)n3)cc21 [Compound 575] | 5.33
CC(C)N1C(=O)CCc2ccc(-c3noc(C4CCN(C(=O)OC(C)(C)C)CC4)n3)cc21 [Compound 572] | 4.82
CC(C)n1ncc2ccc(-c3noc(C4CCN(C(=O)[C@H]5CC(=O)N(c6cccc(C#N)c6)C5)CC4)n3)cc21 [Compound 529] | < 4.35
O=C(c1ccccc1Cl)N1CCC(c2nc(-c3ccc4cnn(C5COC5)c4c3)no2)CC1 [Compound 562] | 5.83
CC(C)n1ncc2ccc(-c3noc([C@H]4CC[C@@H](N)CC4)n3)cc21 [Compound 536] | < 4.35
CC(C)n1ncc2ccc(-c3noc(C4CCN(C(=O)c5ncc(Cl)s5)CC4)n3)cc21 [Compound 589] | 6.45
Cc1noc2cc(-c3noc(C4CCN(C(=O)OC5(C)CC5)CC4)n3)ccc12 [Compound 590] | < 4.35
CC(=O)N1CCC2(CC1)CN(c1nc(-c3ccc4cnn(C(C)C)c4c3)no1)C2 [Compound 571] | < 4.35
CC(C)n1ncc2ccc(-c3noc(C4CCN(C(=O)c5ccccc5F)CC4)n3)cc21 [Compound 532] | 5.67

Same assay, conditions: yeast strain expressing human SCD5 as sole desaturase; Table 8

SMILES | pIC50
COC(=O)C(O)Cn1ncc2ccc(-c3nc(C4CCN(C(=O)OC(C)(C)C)CC4)no3)cc21 (stereo not drawn) [Compound 1244] | 6.12
CC1(C(=O)N2CCC(c3noc(-c4cncc(C5CCOC5)c4)n3)CC2)CCC1 (stereo not drawn) [Compound 1270] | 6.40
CC(C)(C)OC(=O)N1CCC(c2noc(-c3ccnc(-c4ccon4)c3)n2)CC1 [Compound 1277] | 5.60
O=C(C1CCC1)N1CCC(c2noc(-c3ccnc([C@H]4CCOC4)c3)n2)CC1 [Compound 1240] | 6.70
CC(C)(C)OC(=O)N1CCC(c2noc(-c3ccc(F)c(N4CCOC5(CC5)C4)c3)n2)CC1 [Compound 1303] | 7.30
O=C(OC1CCC1)N1CCC(c2noc(-c3cc(C4CCOC4)ncn3)n2)CC1 (stereo not drawn) [Compound 1312] | 7.70
CC(C)(C)OC(=O)N1CCC(c2noc(-c3ccnc(-c4cnoc4)c3)n2)CC1 [Compound 1213] | 7.22
CC1(OC(=O)N2CCC(c3noc(-c4cncc(C5CCOC5)c4)n3)CC2)CC1 (stereo not drawn) [Compound 1206] | 6.49
Cn1cnc(-c2cc(-c3nc(C4CCN(C(=O)OC(C)(C)C)CC4)no3)ccn2)c1 [Compound 1294] | 6.72
CC(C)C(=O)N1CCC(c2noc(N3CCc4cnn(C5COC5)c4C3)n2)CC1 [Compound 1223] | 5.64
CCC(=O)N1CCC(c2noc(-c3cc(N4CCC(F)(F)C4)c(F)cn3)n2)CC1 [Compound 1311] | 5.11
O=C(C1CCC1)N1CCC(c2cc(-c3cnc4cnn(C5COC5)c4c3)on2)CC1 [Compound 1232] | 5.11
O=C(C1CC1)N1CCC(c2noc(-c3ccnc(N4CCC(F)(F)C4)c3)n2)CC1 [Compound 1247] | 5.98
CC(C)(C)OC(=O)N1CCC(c2noc(-c3ccnc(N4CCC(F)(F)C4)c3)n2)CC1 [Compound 1200] | 6.68
O=C(C1CCC1)N1CCC(c2noc(-c3ccnc(N4CCC(F)(F)C4)c3)n2)CC1 [Compound 1246] | 6.40
O=C(C1CCC1)N1CCC(c2noc(-c3cc(C4CCOC4)c(F)cn3)n2)CC1 (stereo not drawn) [Compound 1297] | 6.80

SMILES | pIC50
COC(=O)N1CCC(c2noc(-c3cnnc(C4CCOC4)c3)n2)CC1 (stereo not drawn) [Compound 1250] | 5.00
O=C(C1CC1)N1CCC(c2noc(-c3ccc(F)c(N4CCOCC4)c3)n2)CC1 [Compound 1259] | 7.40
CC(C)(C)OC(=O)N1CCC(c2noc(-c3ccnc(-c4cnco4)c3)n2)CC1 [Compound 1245] | 6.24
CC(C)(C)OC(=O)N1CCC(c2noc(-c3cc(F)c(F)c(N4CCOCC4)c3)n2)CC1 [Compound 1301] | 5.29
O=C(C1CC1)N1CCC(c2cc(-c3cc4c(cn3)cnn4C3COC3)on2)CC1 [Compound 1236] | 6.70
Cn1cc2c(n1)CN(c1nc(C3CCN(C(=O)OC(C)(C)C)CC3)no1)CC2 [Compound 1272] | 5.12
CC(C)(C)OC(=O)N1CCC(c2noc(-c3cc(N4CCOCC4)ccn3)n2)CC1 [Compound 1288] | 5.26
COC(=O)N1CCN(c2cc(-c3ccc4cnn(C5COC5)c4n3)on2)CC1 [Compound 1238] | 4.61
O=C(C1CCC1)N1CCC(c2noc(-c3ccnc(O[C@@H]4CCOC4)c3)n2)CC1 [Compound 1269] | 6.23
CC(C)C(=O)N1CCC(c2noc(-c3cc(C4CCOC4)ccn3)n2)CC1 (stereo not drawn) [Compound 1204] | 5.62
O=C(N1CCC(c2nc(-c3ccnc(C4CCOC4)c3)no2)CC1)C1(F)CC1 (stereo not drawn) [Compound 1229] | 5.82
CC(C)C(=O)N1CCC(c2cc(-c3cc4c(cn3)cnn4C3COC3)on2)CC1 [Compound 1226] | 7.70
CC1(OC(=O)N2CCC(c3noc(-c4ccnc(-c5cnoc5)c4)n3)CC2)CC1 [Compound 1220] | 7.00
O=C(OC1CCC1)N1CCC(c2noc(-c3ccc(=O)n(C4COC4)c3)n2)CC1 [Compound 1309] | 5.99
COC(=O)N1CCC(c2noc(-c3cc(C4CCOC4)ncc3F)n2)CC1 (stereo not drawn) [Compound 1274] | 6.72
CC(C)(C)OC(=O)N1CCC(c2noc(-c3cc(N4CCC(F)(F)C4)c(F)cn3)n2)CC1 [Compound 1287] | 6.47
